Values quoted from earlier work, collected in US20240366562A1, “GYNECOMASTIA AND/OR MASTALGIA TREATMENT” (priority 2021, published 2024).

Legend:
estrogen receptor = molecular target: T1, estrogen receptor (Homo sapiens, UniProt P03372)
T1 sequence (P03372 1-595): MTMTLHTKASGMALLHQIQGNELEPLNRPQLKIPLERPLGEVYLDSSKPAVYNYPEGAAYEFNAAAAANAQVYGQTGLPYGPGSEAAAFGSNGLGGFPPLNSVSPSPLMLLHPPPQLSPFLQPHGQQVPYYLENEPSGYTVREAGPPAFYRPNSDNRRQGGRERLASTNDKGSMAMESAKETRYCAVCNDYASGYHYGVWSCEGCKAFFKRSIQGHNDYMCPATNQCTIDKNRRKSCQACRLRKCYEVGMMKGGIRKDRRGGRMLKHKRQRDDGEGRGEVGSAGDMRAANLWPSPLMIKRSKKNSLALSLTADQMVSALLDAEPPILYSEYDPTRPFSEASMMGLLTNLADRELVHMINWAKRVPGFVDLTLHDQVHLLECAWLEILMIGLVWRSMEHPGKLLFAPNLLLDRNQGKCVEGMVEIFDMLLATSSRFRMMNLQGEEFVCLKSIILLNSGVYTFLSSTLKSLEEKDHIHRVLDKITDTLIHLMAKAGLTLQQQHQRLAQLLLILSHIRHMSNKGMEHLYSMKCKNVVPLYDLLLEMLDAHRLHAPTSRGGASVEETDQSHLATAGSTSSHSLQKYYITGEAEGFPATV

mammary tumors = settings: rodents
[1] = human subjects who ingested I3C
[2] = test system: estrogen-dependent human MCF-7 breast cancer cell line
[3] = women taking Tamoxifen

Competition with estrogen for estrogen receptor binding (estrogen receptor)	Tamoxifen metabolites [3]	SMILES	Formation of spontaneous and carcinogen-induced mammary tumors (mammary tumors)	Side effects (mammary tumors)	Side effects [1]	Expression of CDK6 [2]	Competes with estrogen (estrogen pathway)	Enhances 2HE1 excretion (estrogen pathway)	Inhibits estrogen synthesis (estrogen pathway)	Lowers circulating estrogen (estrogen pathway)	Triggers degradation of ERα (estrogen pathway)
fail to compete		OCc1c[nH]c2ccccc12 [Compound I3C, Indole-3-carbinole]	reduce the formation	no apparent side effects	no side effects	down-regulates	no	yes	yes	yes	yes
	decreases in Tamoxifen metabolites	c1ccc2c(Cc3c[nH]c4ccccc34)c[nH]c2c1 [DIM, 3,3′-diindolylmethane]									
		CC/C(=C(\c1ccccc1)c1ccc(OCCN(C)C)cc1)c1ccccc1 [Tamoxifen, reference compound]					yes	no	no	no	no
